Results published in patent US20210393807A1, “PHOTOACOUSTIC VOLTAGE-SENSITIVE DYES FOR IN VIVO IMAGING” (The Johns Hopkins University, priority 2016, published 2021).
Where “and” joins values, the source holds several entries; their conditions need not be identical. Identical values can stand only once. Entries after “also recorded” stand apart in the source; their conditions may differ.

What was measured:
[1] = Spectrophoto/fluorometric characterization of PA-VSD in lipid vesicle suspension (valinomycin/gramicidin); format: physicochemical; conditions: for fluorescence quenching (fractional change in fluorescence) upon valinomycin polarization: 9 μM concentration, emission 825 nm
Experimental: Lipid vesicles were prepared from 25-mg soybean phosphatidylcholine (type II) suspended in 1 mL of K^+ buffer, which contains 100 mM K2SO4 and 20 mM HEPES. […] A Na^+ buffer containing 100 mM Na2SO4 and 20 mM HEPES was prepared. During experiments, 10 μL of vesicle suspension was added to 1 mL of Na^+ buffer, resulting in an approximately 100:1 K^+ gradient across vesicle membrane. VSD was added to this suspension. When 2.5 μL of 10 μM valinomycin—a K^+ specific ionophore—was added, K^+ ions were transported from inside to outside of vesicle membranes, resulting in a negative membrane potential. This negative potential drives the positively charged VSDs into the vesicles, which causes aggregation of dyes and quenching of fluorescence. Subsequent addition of 2.5 μL of 1 mM gramicidin, a nonspecific monovalent cation ionophore, allows Na^+ cations to move from outside to inside of vesicle membranes to short circuit the membrane potential.
A combined spectrophoto/fluorometer system (Spectramax i3x, Molecular Devices) was used to measure both fluorescence and absorbance of the PA-VSD with 1, 3, 6, and 9 μM concentrations. For fluorescence, the measurement was conducted for the spectral range from 750 to 850 nm at 10-nm increment, and the absorbance was measured in the range from 600 to 900 nm at 5-nm increments. Note that 720-nm wavelength was used for excitation during spectrofluorometry of the PA-VSD.

[2] = Photoacoustic characterization of PA-VSD in lipid vesicle phantom; format: physicochemical; conditions: 800 nm; for fractional PA intensity change upon polarization: 20 samples
Experimental: Lipid vesicles were prepared from 25-mg soybean phosphatidylcholine (type II) suspended in 1 mL of K^+ buffer, which contains 100 mM K2SO4 and 20 mM HEPES. This suspension was vortexed for 10 min and sonicated in bath-type sonicator for 60 min, yielding a translucent vesicle suspension. A Na^+ buffer containing 100 mM Na2SO4 and 20 mM HEPES was prepared. During experiments, 10 μL of vesicle suspension was added to 1 mL of Na^+ buffer, resulting in an approximately 100:1 K^+ gradient across vesicle membrane. VSD was added to this suspension. When 2.5 μL of 10 μM valinomycin—a K^+ specific ionophore—was added, K^+ ions were transported from inside to outside of vesicle membranes, resulting in a negative membrane potential. This negative potential drives the positively charged VSDs into the vesicles, which causes aggregation of dyes and quenching of fluorescence. Subsequent addition of 2.5 μL of 1 mM gramicidin, a nonspecific monovalent cation ionophore, allows Na^+ cations to move from outside to inside of vesicle membranes to short circuit the membrane potential.
The PA sensing system was employed for the characterization of the synthesized PA-VSD (FIG. 3); Q-switched Nd:YAG laser integrated with an optical parametric oscillator (Phocus Inline and MagicPrism, Opotek Inc.) was used for PA signal generation. With the tunability of the laser system, the spectral responses for near-infrared wavelengths (i.e., 700 to 850 nm at 10-nm interval) were scanned with 20-Hz pulsed repetition frequency and […]. The light was delivered through an optical fiber bundle with a 9-mm round shaped output, which was aligned with an ultrasound receiver. The PAVSD in the lipid vesicles suspension was loaded into transparent tubes with 1.27-mm diameter (AAQ04133, Tygon®, SaintGobain Corp.), which were located at around 30 mm depth in the water tank. Note that the temperature of the water was consistently maintained at 22° C. during the experiments. A 10-MHz linear ultrasound probe (L 14-5/38, Ultrasonix Corp.) was used for PA-VSD sensing in a practical circumstance with a limited bandwidth (i.e., 75%-6 dB fractional bandwidth). Similarly, a hydrophone with wide flat bandwidth from 250 kHz to 20 MHz (HGL-1000, Onda Corp., California) was used to collect single line radio-frequency (RF) PA pressure signal. Twenty sets of PA data were collected, in which 19 of them were collected using the linear array transducer, and the other was through the hydrophone, and the average and standard deviation values were calculated. The PA signals acquired at the depth of target were used to form an averaged RF signal, which is further processed to present PA intensity at each optical wavelength; this permitted an accurate correlation with the spectrophotometric measurements. For the imaging setup, one set of data was obtained using the linear array transducer from 9 μM PA-VSD at 800-nm optical wavelength, and the difference between the resting and polarized states was analyzed.

rat brain motor cortex = assay: Transcranial PA imaging of chemoconvulsant (PTZ) seizure neural activity; format: in vivo, Sprague Dawley rats; conditions: for neural activity index (fractional change vs baseline): baseline 1.00±0.20
Excerpt: (§1) 2.5.1 Photoacoustic imaging setup. For the recording of electrophysiological brain activities in vivo, an ultrasound research system was utilized that consisted of ultrasound array transducer (L 14-5/38) connected to a real-time data acquisition system (SonixDAQ, Ultrasonix Medical Corp., Canada). To induce the PA signals, pulsed laser light was generated by a second-harmonic (532 nm) Nd:YAG laser pumping an optical parametric oscillator (OPO) system (Phocus Inline, Opotek Inc., USA). The tunable range of the laser system was 690-900 nm and the maximum pulse repetition frequency was 20 Hz. The laser pulse was delivered into the probe through bifurcated fiber optic bundles, each 40 mm long and 0.88 mm wide. The PA probe was located at around the Interaural 11.2 mm and Bregma 2.2 mm to obtain the cross-section of motor cortexes (FIG. 15). The energy density at skin surface was only 3.5 mJ/cm^2, which is far below the ANSI safety limit restricting the 5-ns pulsed laser exposure at 700-1400 nm of wavelength range to be lower than 20 mJ/cm^2. 2.5.2 Lipid vesicle phantom preparation for VSD validation. The lipid vesicle model was prepared using the same procedure as in Zhang et al (Zhang, et al., 2017); 25-mg soybean phosphatidyl-choline (type II) suspended in 1 mL of K^+ buffer was used as the lipid vesicles. This vesicle contains 100 mM K2SO4 and 20 mM HEPES. The suspension was vortexed for 10 min, and followed by 60 min of sonication within bath-type sonicator to yield a translucent vesicle suspension. A Na^+ buffer was also prepared, which contains 100 mM Na2SO4 and 20 mM HEPES. Afterwards, approximately a 100:1 K^+ gradient across vesicle membrane was established with 10 μL of lipid vesicle suspension added to 1 mL of Na^+ buffer. In the vesicle phantom prepared, negative membrane potential (polarized state) was mimicked by adding 2.5 μL of 10 μM valinomycin—a K^+ specific ionophore, thereby K^+ ions were transported from inside to outside of vesicle membranes.
2.5.4 Animal preparation. For the proposed in vivo experiments. […]

[3] = in vivo; cited from earlier work
rat motor cortex [4] = assay: VSD toxicity study, EEG during direct cortical application via cranial window; format: in vivo
Experimental: 2.5.10 Validation of protocol for using sub-dermal EEG electrodes to determine toxic CNS effects of VSDs. VSDs effect on EEG signal from sub-dermal scalp electrodes was investigated in a pilot by direct cortical applications of increasing concentrations of VSDs in anesthetized rat with limited craniotomies while recording synchronous vEEGs (FIG. 21).
Increasing concentrations of VSD were tested in the same rat at temporally spaced time-points. Rats were anesthetized with IP injection to ketamine/xylazine and a cranial window made over the right motor cortex. After recording a baseline EEG in the rat for 10-min duration with the craniotomy, the follow-on EEG recording continued to record EEG following application of increasing concentrations of vehicle alone and VSD+ vehicle for the same duration of EEG recordings (i.e., 10 min) allowing comparisons of EEG responses to each increasing gradient of VSD on cortical activity as compared to baseline EEG signature in the same rat.

rat motor cortex [5] = assay: EEG validation of seizure activity in the in vivo protocol; conditions: IV VSD treatment; anesthetized rats
Experimental: 2.5.9 EEG validation of neural seizure activity. To obtain the EEG records of electrical spike discharges that originated from motor cortex shown in FIG. 14, sub-dermal scalp EEG recording electrodes were located at the corresponding locations on motor cortex indicated by Xs in FIG. 21A, the schematic of the rat cranium (three electrodes, 1 recording and 1 reference over motor cortex, 1 ground electrode over rostrum). The EEG signal at motor cortex was recorded with the identical preparation procedures in PA imaging including animal preparation, administration of IR780, Lexiscan, and PTZ, time duration for recording, and interval between sequences in the protocol. Data acquisition was done using Sirenia software (Pinnacle Technologies Inc., Kansas, USA) with synchronous video capture. […] The files were stored in .EDF format and scored manually for protocol stages using real time annotations added to the recording during the experiments.

[6] = Photoacoustic measurement and quantum yield estimation of near-infrared VSD in lipid vesicle phantom; format: physicochemical; conditions: for PA intensity decrease in depolarization state compared to polarized state (pure VSD contrast): 790 nm
Excerpt: as §1
Otherwise, 2.5 μL of 1 mM gramicidin, a nonspecific monovalent cation ionophore, enables Na+ cations to move from outside to inside of vesicle membranes to short circuit the membrane potential (depolarized state).
2.5.3 Estimation of quantum yield change of VSD. The quantum yields of the near-infrared VSD in depolarized states […] were estimated based on the Eq. 8 and 9 disclosed previously. […] The quantum yield in the polarized state (ΦF) were also estimated by compensating for the absorbance and fluorescence emission changes when depolarized: ΦF=(CF/Cabs)Φ′F.

[7] = test system: blood-brain barrier (BBB); assay: PA intensity monitoring of VSD penetration through BBB with regadenoson; format: in vivo, rat; conditions: brain tissue region; intravenous; last 2 min (8-10 min), 480 time points
Experimental: (Carman, et al., 2011) For preliminary studies, the dosage and IV administration method indicated by the manufacturer was utilized. A volume of 150 μl of the standard concentration of 0.08 mg/1 ml was given to each animal regardless of the weight, followed by 150 μl flush of 0.9% sodium chloride for injection. VSD penetration was expected during the Lexiscan's biological half-life, i.e., 2-4 minutes, thereby the experimental protocol was designed based on the pharmacological assumption. In vivo experimental protocol. The in vivo protocols were respectively designed for three experimental groups: negative control, control, and seizure groups. […] Note that each data acquisition was performed for 10 min to cover the biological half-life of Lexiscan (2-3 min). Each dosing protocol of Lexiscan and VSD was as follows: through the jugular vein catheter port located in the neck, 150 μl of Lexiscan 0.4 mg/5 ml concentration was injected, and 300 μl of VSD was subsequently administrated at 0.1 mg/ml concentration, followed by 150 μl of saline solution flush. […] The negative control group was designed to validate the incapability of Lexiscan and PTZ to generate any bias on PA neural activity detection by excluding VSD administration. […]

[8] = Spectrophotometric measurements of near-infrared VSD in lipid vesicle phantom; format: physicochemical
Excerpt: as §1, with “Afterwards, approximately a 100:1 K^+ gradient across vesicle membrane was established with 10 μL of lipid vesicle suspension added to 1 mL of Na^+ buffer. In the vesicle phantom prepared, negative membrane potential (polarized state) was mimicked by adding 2.5 μL of 10 μM valinomycin—a K^+ specific ionophore, thereby K^+ ions were transported from inside to outside of vesicle membranes.” left out
Otherwise, 2.5 μL of 1 mM gramicidin, a nonspecific monovalent cation ionophore, enables Na+ cations to move from outside to inside of vesicle membranes to short circuit the membrane potential (depolarized state). From these controls, our near-infrared VSD positively charged can move in and out through the vesicle membrane, leading to the change in fluorescence quenching depending on their aggregation status.

[9] = direct cortical application, 100×
[10] = estimated with theoretical model

For CCN1/C(=C/C=C/C=C/C=C/C2=[N+](CC)c3ccc4ccccc4c3C2(C)C)C(C)(C)c2c1ccc1ccccc21.[I-] [PAVSD800-2], the “fluorescence quenching (fractional change in fluorescence) upon valinomycin polarization” value [1] was “up to 49%”, the “fluorescence quenching (fractional change in fluorescence) upon valinomycin polarization” value ([1]; listed as PA-VSD) was 49% and the fluorescence emission ([1]; in the presence of lipid membranes) was 828 nm. The “fractional PA intensity change upon polarization” value ([2]; 1 μM) was 17%, the “fractional PA intensity change upon polarization” value ([2]; 3 μM) was 24% and the “fractional PA intensity change upon polarization” value ([2]; 6 μM) was 17%. For the same compound, the “PA intensity increase in the polarized state” value ([2]; 6 μM, typical experiment) was 14%, the “fractional PA intensity change upon polarization” value ([2]; 9 μM) was 17% and the “fractional change of PA signals” value ([2]; 9 μM, dataset chosen for reconstructed PA images) was 22.72%.
In the case of CNC(=O)c1cnn(-c2nc(N)c3ncn([C@@H]4O[C@H](CO)[C@@H](O)[C@H]4O)c3n2)c1 [Lexiscan, regadenoson], the neural activity index (rat brain motor cortex; negative control group without VSD, Lexiscan+/PTZ−) is given as 0.92±0.23 and the biological half-life [3] is given as 2-4 min and 2-3 min.
With CCCN1/C(=C/C=C2\CCCC(/C=C/C3=[N+](CCC)c4ccccc4C3(C)C)=C2Cl)C(C)(C)c2ccccc21.[I-] [IR780, IR780 perchlorate] the “course of EEG suppression” value (rat motor cortex [4]; 100×, over the 10-min recording period) was “recovered to baseline”, the “EEG effect of 100× solution” value (rat motor cortex [4]; [9]) was “significant EEG background suppression” and the “rats with significant EEG background suppression” value (rat motor cortex [4]; [9]) was 4/6. The “effect on baseline EEG” value (rat motor cortex [4]; direct cortical application, lower concentrations, 10-min recordings) was “no effect in altering the baseline EEG; also recorded: remained unaltered”, the “neural activity index (fractional change vs baseline)” value (rat brain motor cortex; control group (VSD+Lexiscan, no PTZ)) was 0.93±0.25 and the “neural activity index (fractional change vs baseline)” value (rat brain motor cortex; seizure group (VSD+Lexiscan+PTZ), motor cortex, 790 nm) was 2.40±0.42. The “PTZ evolution of status on EEG” value (rat motor cortex [5]) was “did not alter”, the “PA intensity decrease in depolarization state compared to polarized state (pure VSD contrast)” value [6] was 12.3±6.7% and the “PA intensity decrease in depolarization state compared to polarized state (pure VSD contrast)” value ([6]; listed as VSD) was 12.3% and 12.22%. For the same compound, the “quantum yield in the depolarized state” value [6, 10] was 0.28±0.10, the “quantum yield in the polarized state” value [6, 10] was 0.17±0.06 and the “fractional increase of PA intensity from the natural condition (VSD−, Lexiscan−)” value [7] was 1.09±0.09. The peak absorbance [8] was 790 nm, the “absorbance change between polarized and depolarized states” value ([8]; valinomycin and gramicidin) was 3% and the “fluorescence emission change between polarized and depolarized states” value ([8]; valinomycin and gramicidin) was 40.1%.
